According to ChEMBL document CHEMBL1201862, “PubChem BioAssay data set” (2004):
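These data come from cells grown in 96-well plates and exposed to compound for 48 hours at five concentrations. Here, GI50 denotes the concentration required for 50% inhibition of growth.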 Active and inactive are the calls of the source. Cut-off read from the data, not from the text of the source: active = GI50 up to about 1.1 µM and inactive = higher.

How the values were obtained:
Experiment in all cases: DTP human tumour cell line panel, 48 h
NCI-H522 = test system: NCI-H522
OVCAR-8 = test system: OVCAR-8
LOX IMVI = test system: LOX IMVI
SK-MEL-5 = test system: SK-MEL-5
M14 = test system: M14
EKVX = test system: EKVX
SW-620 = test system: SW-620
TK-10 = test system: TK-10
SNB-75 = test system: SNB-75
786-0 = test system: 786-0
SNB-19 = test system: SNB-19
SF-268 = test system: SF-268
K562 = test system: K562
HOP-62 = test system: HOP-62
SK-MEL-28 = test system: SK-MEL-28
CAKI-1 = test system: CAKI-1
SN12C = test system: SN12C

Measured: GI50

CC(C)OP(=O)(OC(C)C)/C(=N/Nc1ccc([N+](=O)[O-])cc1)NCCN/C(=N\Nc1ccc([N+](=O)[O-])cc1)P(=O)(OC(C)C)OC(C)C
inactive: NCI-H522 3.22 µM | OVCAR-8 4.55 µM | LOX IMVI 8.89 µM | SK-MEL-5 6.22 µM | M14 14.8 µM | EKVX 4.54 µM | SW-620 3.76 µM | TK-10 6.03 µM | SNB-75 5 µM | 786-0 9.86 µM | SNB-19 3.35 µM | SF-268 > 100 µM | K562 3.29 µM | HOP-62 6.01 µM | SK-MEL-28 31.3 µM | CAKI-1 3.58 µM | SN12C 4.07 µM

C=CCC12CC(=O)CCC1c1ccc(OC)cc1C2=O (configuration not stated)
inactive: NCI-H522 > 100 µM | OVCAR-8 > 100 µM | LOX IMVI > 100 µM | SK-MEL-5 > 100 µM | M14 > 100 µM | EKVX > 100 µM | SW-620 > 100 µM | TK-10 > 100 µM | SNB-75 > 100 µM | 786-0 > 100 µM | SNB-19 > 100 µM | SF-268 > 100 µM | K562 > 100 µM | HOP-62 > 100 µM | SK-MEL-28 > 100 µM | CAKI-1 > 100 µM | SN12C > 100 µM

OCC1CC2C=CCC(C2)C1 (configuration not stated)
inactive: NCI-H522 > 100 µM | OVCAR-8 > 100 µM | LOX IMVI > 100 µM | SK-MEL-5 > 100 µM | M14 > 100 µM | EKVX > 100 µM | SW-620 > 100 µM | TK-10 > 100 µM | SNB-75 > 100 µM | 786-0 > 100 µM | SNB-19 > 100 µM | SF-268 > 100 µM | K562 > 100 µM | HOP-62 > 100 µM | SK-MEL-28 > 100 µM | CAKI-1 > 100 µM | SN12C > 100 µM

CC(=O)Nc1ccc(/C=C/C(=O)c2sc(-n3nc(-c4ccccc4)cc3-c3ccccc3)nc2C)cc1
inactive: NCI-H522 35.9 µM | OVCAR-8 > 10 µM | LOX IMVI > 10 µM | SK-MEL-5 95.3 µM | M14 > 10 µM | EKVX 8.99 µM | SW-620 > 10 µM | TK-10 > 10 µM | SNB-75 > 10 µM | 786-0 > 10 µM | SNB-19 > 10 µM | SF-268 > 10 µM | K562 > 10 µM | HOP-62 > 10 µM | SK-MEL-28 > 10 µM | CAKI-1 > 10 µM | SN12C > 10 µM

CCOC(=O)C1(Br)C(c2ccccc2)NC(=O)N(C2OC(COC(=O)c3ccccc3)C(OC(=O)c3ccccc3)C2OC(=O)c2ccccc2)C1(C)Br (configuration not stated)
inactive: NCI-H522 10.2 µM | OVCAR-8 17.3 µM | LOX IMVI 21.8 µM | SK-MEL-5 15.2 µM | M14 21 µM | EKVX 36.7 µM | SW-620 14.4 µM | TK-10 39.4 µM | SNB-75 13.3 µM | 786-0 12.9 µM | SNB-19 39.9 µM | SF-268 > 55.5 µM | K562 8.91 µM | HOP-62 38.9 µM | SK-MEL-28 > 47 µM | CAKI-1 35.6 µM | SN12C 34 µM

Cc1cc2c(cc1CO)N1Cc3cc(C)c(CO)cc3N(C2)C1
inactive: NCI-H522 > 100 µM | OVCAR-8 > 100 µM | LOX IMVI > 100 µM | SK-MEL-5 > 100 µM | M14 > 100 µM | EKVX > 100 µM | SW-620 > 100 µM | TK-10 > 100 µM | SNB-75 > 100 µM | 786-0 > 100 µM | SNB-19 > 100 µM | SF-268 > 100 µM | K562 > 100 µM | HOP-62 > 100 µM | SK-MEL-28 > 100 µM | SN12C > 100 µM

Cc1cccc(C)c1NC(=O)C(=O)CC(=O)CO
inactive: NCI-H522 > 100 µM | OVCAR-8 > 100 µM | LOX IMVI > 100 µM | SK-MEL-5 > 100 µM | M14 > 100 µM | EKVX > 100 µM | SW-620 > 100 µM | TK-10 > 100 µM | SNB-75 73.5 µM | 786-0 > 100 µM | SNB-19 > 100 µM | SF-268 > 100 µM | K562 > 100 µM | HOP-62 > 100 µM | SK-MEL-28 > 100 µM | CAKI-1 > 100 µM | SN12C > 100 µM

O=C1c2cnccc2Cc2cccc3c2N1c1ccccc1S3
inactive: NCI-H522 12.5 µM | LOX IMVI 22.7 µM | SK-MEL-5 17.9 µM | M14 24.3 µM | SW-620 27.8 µM | SNB-75 12.6 µM | 786-0 28.1 µM | SNB-19 30.9 µM | SF-268 29 µM | K562 20.8 µM | HOP-62 20.9 µM | SK-MEL-28 26.1 µM | CAKI-1 2.88 µM | SN12C 29 µM

COC(=O)C(Cc1nc2ccccc2nc1O)C(=O)C(=O)Nc1ccc(OC)cc1[N+](=O)[O-] (configuration not stated)
inactive: NCI-H522 > 100 µM | OVCAR-8 > 100 µM | LOX IMVI > 100 µM | SK-MEL-5 > 100 µM | M14 > 100 µM | EKVX > 100 µM | SW-620 > 100 µM | TK-10 > 100 µM | 786-0 > 100 µM | SNB-19 > 100 µM | SF-268 > 100 µM | K562 > 100 µM | HOP-62 > 100 µM | SK-MEL-28 > 100 µM | CAKI-1 > 100 µM | SN12C > 100 µM

N#CC12CCC(O)C(CC1)C2=O (configuration not stated)
inactive: NCI-H522 > 100 µM | OVCAR-8 > 100 µM | LOX IMVI 21.5 µM | SK-MEL-5 > 100 µM | M14 > 100 µM | EKVX > 100 µM | TK-10 > 100 µM | SNB-75 > 100 µM | 786-0 > 100 µM | SNB-19 > 100 µM | SF-268 > 100 µM | K562 > 100 µM | HOP-62 > 100 µM | SK-MEL-28 > 100 µM | CAKI-1 > 100 µM | SN12C > 100 µM

NC1CC(n2ccc(=O)[nH]c2=O)OC1C(O)CO (configuration not stated)
inactive: NCI-H522 > 100 µM | OVCAR-8 > 100 µM | LOX IMVI > 100 µM | SK-MEL-5 > 100 µM | M14 > 100 µM | EKVX > 100 µM | SW-620 > 100 µM | TK-10 > 100 µM | SNB-75 > 100 µM | 786-0 > 100 µM | SNB-19 > 100 µM | SF-268 > 100 µM | K562 > 100 µM | HOP-62 > 100 µM | SK-MEL-28 > 100 µM | SN12C > 100 µM

COc1cc2c(cc1OC)C(CC1=C(c3ccccc3)CN3CCc4cc(OC)c(OC)cc4C3C1)NCC2 (configuration not stated)
inactive: OVCAR-8 19.3 µM | LOX IMVI 15.8 µM | SK-MEL-5 12.4 µM | M14 21.3 µM | EKVX 21.8 µM | SW-620 17.7 µM | TK-10 16.6 µM | SNB-75 12.5 µM | 786-0 15.7 µM | SNB-19 19.6 µM | SF-268 15 µM | K562 12.2 µM | SK-MEL-28 14.5 µM | CAKI-1 25.7 µM | SN12C 17.9 µM

Cc1ccc(NC(=O)C(=O)C(C#N)c2nc(-c3ccc(-c4ccccc4)cc3)cs2)c(C)c1 (configuration not stated)
inactive: OVCAR-8 > 100 µM | LOX IMVI > 100 µM | SK-MEL-5 > 100 µM | M14 > 100 µM | EKVX > 100 µM | SW-620 17.4 µM | TK-10 > 100 µM | SNB-75 > 100 µM | 786-0 > 100 µM | SNB-19 > 100 µM | SF-268 > 100 µM | HOP-62 > 100 µM | SK-MEL-28 > 100 µM | CAKI-1 > 100 µM | SN12C > 100 µM

O=C(O)/C(Cl)=C(\Cl)C(=O)Nc1ccccc1
inactive: LOX IMVI > 100 µM | SK-MEL-5 > 100 µM | M14 > 100 µM | EKVX > 100 µM | SW-620 > 100 µM | TK-10 > 100 µM | SNB-75 > 100 µM | 786-0 > 100 µM | SNB-19 > 100 µM | SF-268 > 100 µM | K562 > 100 µM | HOP-62 > 100 µM | SK-MEL-28 > 100 µM | CAKI-1 > 100 µM | SN12C > 100 µM

CC(=O)OC1=C2CC[C@@H]3C(CC[C@@]4(C)C3CC[C@@H]4OC(C)=O)[C@@]2(C)CC(C#N)C1=O (some centres not stated)
inactive: OVCAR-8 30.9 µM | LOX IMVI 16.8 µM | SK-MEL-5 20.2 µM | M14 25.1 µM | EKVX 33 µM | SW-620 35.7 µM | TK-10 23.6 µM | SNB-75 14.5 µM | 786-0 10.8 µM | SNB-19 25.2 µM | SF-268 31 µM | K562 22.6 µM | HOP-62 8.67 µM | SK-MEL-28 30.3 µM | SN12C 28.6 µM

Cc1cccc(C)c1N1C(=O)C(=O)C(c2nc3ccccc3s2)/C(=N/c2cccc3c(=O)[nH][nH]c(=O)c23)C1=O (configuration not stated)
inactive: OVCAR-8 > 100 µM | LOX IMVI > 100 µM | SK-MEL-5 > 100 µM | M14 > 100 µM | EKVX > 100 µM | SW-620 > 100 µM | TK-10 > 100 µM | SNB-75 81.8 µM | 786-0 > 100 µM | SNB-19 > 100 µM | SF-268 > 100 µM | K562 98.4 µM | HOP-62 > 100 µM | SK-MEL-28 > 100 µM | CAKI-1 > 100 µM | SN12C > 100 µM

CCCCc1c2c(nc3c1CCc1cc4c(nc1-3)-c1nc3c(c(CCCC)c1CC4)CCC/C3=C\c1ccccc1)/C(=C/c1ccccc1)CCC2
inactive: NCI-H522 44.1 µM | OVCAR-8 > 100 µM | LOX IMVI > 100 µM | SK-MEL-5 69.7 µM | M14 > 100 µM | EKVX > 100 µM | SW-620 67 µM | TK-10 51.2 µM | 786-0 25.2 µM | SNB-19 35.9 µM | SF-268 > 100 µM | K562 > 100 µM | HOP-62 36.9 µM | SK-MEL-28 > 100 µM | CAKI-1 29.1 µM | SN12C > 100 µM
